Laboratory results: US6642256B2, “Piperidine derivatives as subtype selective N-Methyl-D-Aspartate antagonists” (Warner-Lambert Company LLC, priority 2000, dated 2003)

Experiments:
[1] = molecular target: NR1A/NR2B NMDA receptor (Rattus norvegicus, UniProt P35439+Q00960); experiment: Electrophysiological NR1A/NR2B assay in Xenopus oocytes (two-electrode voltage clamp); format: cell-based; details: Table 1; oocytes expressing NR1A/NR2B, currents activated by glutamate and glycine
Description: I. Electrophysiological assays at NMDA receptor subunits (in vitro):
(i) Preparation of subunit RNA's:
cDNA clones encoding the NR1A, NR2A, NR2B, and NR2C rat NMDA receptor subtypes were used. (See, Moriyoshi et al., Nature (Lond.), 1991;354:31-37; Kutsuwada et al., Nature (Lond.), 1992;358:36-41; Monyer et al., Science (Washington, D.C.) 1992;256:1217-1221; Ikeda et al., FEBS Lett. 1992;313: 34-38; Ishii et al., J. Biol. Chem., 1993;268:2836-2843 for details of these clones or their mouse homologs). The clones were transformed into appropriate host bacteria and plasmid preparations were made with conventional DNA purification techniques. A sample of each clone was linearized by restriction enzyme digestion […] was synthesized with T3 RNA polymerase. The cRNA was diluted to 400 ng/μl and stored in 1 μl aliquots at −80° C. until injection.
(ii) The Xenopus oocyte expression system: […]
Electrical recordings were made using a conventional two-electrode voltage clamp (Dagan TEV-200) over periods ranging between 3 to 21 days following injection. […] Inhibitory potency of the novel antagonists of this invention was assessed on responses elicited by fixed concentrations of glutamate and glycine agonists, by measuring reductions in current induced by progressively increasing concentrations of invention compounds. […]

[2] = test system: 6-Hydroxydopamine-lesioned rats; experiment: 6-OHDA lesioned rat assay (potentiation of L-DOPA-induced contraversive rotation); format: in vivo; details: Table 1; po; statistically significant increase in contraversive rotations versus L-DOPA alone (L-DOPA methyl ester 10 mg/kg SC)
Description: b. The 6-OHDA Lesioned Rat Assay (6-OHDA):
The 6-OHDA model is used to test compounds of the invention for anti-Parkinsonism activity.
(i) 6-OHDA lesioned rat assay protocol:
6-Hydroxydopamine-lesioned rats were used (see Ungerstedt U, Arbuthnott G W: “Quantitative recording of rotational behavior in rats after 6-hydroxy-dopamine lesions of the nigrostraiatal dopamine system”, Brain Res., 1971;24(3):485-493). Adult male Sprague-Dawley rats were anesthetized with chloral hydrate, and unilateral lesions of the nigrostriatal dopamine system were accomplished by infusion of 8 μg of 6-hydroxydopamine HBr (6-OHDA) into the right medial forebrain bundle. Rats were pretreated 30 minutes before surgery with desipramine HCl 25 mg/kg intraperitoneally (IP) to protect noradrenergic neurons, and pargyline 25 mg/kg IP to potentiate the effects of 6-OHDA. A minimum of 3 weeks after surgery, the rotational behavior induced by apomorphine HCL 50 μg/kg administered subcutaneously (SC) was assessed.
(ii) Measurement of animal behavior:
Rotational behavior was measured using an automatic rotometer system (Rotorat Rotational Activity System, MED Associates, Georgia, Vt.). Antiparkinsonian activity was assessed as the ability of the invention compounds to potentiate the contraversive rotation induced by L-DOPA methyl ester, dosed at 10 mg/kg SC, over a 6-hour period. […]

NR1A/NR2B NMDA receptor, sequence (Q00960 27-1482, other chains not shown): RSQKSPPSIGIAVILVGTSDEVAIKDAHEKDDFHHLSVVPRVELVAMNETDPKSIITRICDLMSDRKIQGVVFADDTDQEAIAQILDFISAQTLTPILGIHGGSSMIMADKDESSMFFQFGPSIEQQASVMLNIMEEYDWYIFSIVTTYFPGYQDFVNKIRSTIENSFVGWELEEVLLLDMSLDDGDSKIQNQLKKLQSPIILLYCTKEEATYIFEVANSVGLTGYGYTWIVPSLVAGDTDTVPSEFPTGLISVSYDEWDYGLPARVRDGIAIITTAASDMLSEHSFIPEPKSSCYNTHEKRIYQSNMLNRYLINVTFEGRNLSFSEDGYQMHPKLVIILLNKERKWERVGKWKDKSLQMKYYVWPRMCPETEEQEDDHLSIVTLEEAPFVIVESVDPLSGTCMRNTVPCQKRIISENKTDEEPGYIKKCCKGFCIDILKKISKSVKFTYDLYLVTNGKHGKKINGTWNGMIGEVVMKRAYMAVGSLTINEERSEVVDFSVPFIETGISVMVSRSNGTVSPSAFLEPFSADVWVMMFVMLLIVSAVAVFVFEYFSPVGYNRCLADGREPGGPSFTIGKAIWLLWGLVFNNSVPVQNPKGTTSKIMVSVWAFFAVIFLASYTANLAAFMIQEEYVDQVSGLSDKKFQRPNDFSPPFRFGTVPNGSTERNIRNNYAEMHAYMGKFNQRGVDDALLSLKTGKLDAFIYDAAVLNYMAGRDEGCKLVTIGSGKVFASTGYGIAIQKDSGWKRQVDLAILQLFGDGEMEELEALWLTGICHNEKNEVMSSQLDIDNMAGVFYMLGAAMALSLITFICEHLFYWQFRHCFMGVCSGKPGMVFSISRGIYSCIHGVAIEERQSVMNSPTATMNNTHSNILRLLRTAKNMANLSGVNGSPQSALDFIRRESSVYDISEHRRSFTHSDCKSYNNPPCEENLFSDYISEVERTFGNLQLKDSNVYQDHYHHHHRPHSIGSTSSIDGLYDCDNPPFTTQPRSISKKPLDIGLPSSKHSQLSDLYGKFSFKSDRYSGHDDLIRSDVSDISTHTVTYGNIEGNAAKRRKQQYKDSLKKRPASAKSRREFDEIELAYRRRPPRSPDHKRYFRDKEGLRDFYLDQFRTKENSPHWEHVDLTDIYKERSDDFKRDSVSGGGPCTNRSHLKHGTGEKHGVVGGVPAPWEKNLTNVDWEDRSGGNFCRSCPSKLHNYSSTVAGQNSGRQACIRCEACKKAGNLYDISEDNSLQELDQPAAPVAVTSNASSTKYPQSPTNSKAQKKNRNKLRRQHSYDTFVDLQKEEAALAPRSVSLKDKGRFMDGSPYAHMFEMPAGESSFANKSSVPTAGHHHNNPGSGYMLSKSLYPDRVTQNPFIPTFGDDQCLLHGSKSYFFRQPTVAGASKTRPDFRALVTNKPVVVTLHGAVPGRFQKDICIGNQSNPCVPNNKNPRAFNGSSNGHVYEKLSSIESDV

Row | Structure (SMILES) | IC50 [1] [µM] | 6-OHDA (mg/kg), minimum effective dose (MED) [2]
1 | O=c1[nH]c2ccc(C3=NOC(CN4CCC(Cc5ccccc5)CC4)C3)cc2o1 (racemic) [Example 1, 6-[5-(4-Benzylpiperidin-1-ylmethyl)-4,5-dihydroisoxazol-3-yl]-3H-benzoxazol-2-one] | 0.08 | >10 (po) mg/kg
2 | O=c1[nH]c2ccc(C3=NOC(CN4CCC(Cc5ccc(F)cc5)CC4)C3)cc2o1 (single isomer, unassigned; (-)) [Example 4b, (−)-6-{5-[4-(4-Fluorobenzyl)piperidin-1-ylmethyl]4,5-dihydroisoxazol-3-yl}-3H-benzoxazol-2-one] | – | >30 (po) mg/kg
